The source of these data is US20260217673A1, “NOVEL COMPOUND AS RON INHIBITOR” (LG CHEM, LTD., priority 2022, published 2026).

The target of one assay is RON (Homo sapiens, UniProt Q04912). Nature of the assay: RON inhibitory activity, TR-FRET kinase assay. The settings on record: RON protein, ULight-labeled Poly GT substrate. Type of assay: biochemical. How it is done: To measure the RON inhibitory activity of the example compounds, the IC50 of the compounds was measured using time-resolved fluorescence energy transfer (TR-FRET).
Specifically, the compound was prepared at a concentration of 1 mM with 100% DMSO and serially diluted 10 times through 3-fold dilution. 2 μl of the serially diluted compound was added to a 96-well plate containing 48 μl of 1× kinase reaction buffer (50 mM HEPES (pH 7.4), 0.01% Tween-20, 5 mM DTT, 0.5 mM Na3VO4, 2 mM EGTA, 10 mM MgCl2).
The RON protein was diluted with a RON storage buffer (50 mM Tris-HCl (pH 7.5), 150 mM NaCl, 0.5 mM EDTA, 0.02% Triton X-100) to a concentration of 49.3 nM, and then diluted again with 1× kinase reaction buffer to be 0.4 nM. As a substrate cocktail, a RON-specific substrate mixture (40 μM ULight-labeled Poly GT, 100 nM ATP) was prepared at a concentration twice the final reaction concentration.
(§1) After that, a 384-well plate was prepared, and 2.5 μl of the diluted example compound was added to each of the experimental group wells, and 2.5 μl of a 4% DMSO solution was dispensed into high control wells and low control wells.
(§2) Afterward, 2.5 μl of 0.4 nM RON was dispensed into the high control wells and the experimental group wells, and 2.5 μl of 1× kinase reaction buffer was added to the low control wells, and after centrifugation at 1000 RPM for 40 seconds at room temperature, the mixtures were incubated at room temperature for 20 to 30 minutes. Then, 5 μl of the substrate cocktail (2×) was dispensed into all wells, and after centrifugation at 1000 RPM for 40 seconds at room temperature, the mixtures were incubated at room temperature for 60 minutes. Afterward, 5 μl of 30 mM EDTA was added to all wells to terminate the reaction, and the mixtures were incubated again at room temperature for 5 minutes. Thereafter, 5 μl of 4× phosphotyrosine antibodies (Perkin Elmer) containing europium was added to all wells and incubated at room temperature for 60 minutes. After the incubation, the 384-well-plate was read with a Vison plate reader. At this time, the excitation wavelength was 340 nm, and the emission wavelengths were 620 nm and 665 nm. The IC50 value of each example compound was derived using the GraphPd Prism7 program.
A general note: Time-resolved FRET reads energy transfer from a long-lived donor to a nearby acceptor.

Another assay deals with cMET (Homo sapiens, UniProt P08581). Put plainly: MET (cMET) enzyme inhibitory activity, TR-FRET kinase assay. The assay is classed as biochemical. The settings on record: cMET protein, TK peptide substrate. As for the experimental part: In addition, to measure cMET enzyme activity inhibition, an experiment was performed by the same method as the experiment for measuring the RON enzyme activity inhibition.
Specifically, the compound was prepared at a concentration of 1 mM with 100% DMSO and serially diluted 10 times through 3-fold dilution. 2 μl of the serially diluted compound was added to a 96-well plate containing 48 μl 1× kinase reaction buffer (50 mM HEPES (pH 7.4), 0.05% BSA, 0.005% Tween-20, 1 mM DTT, 0.5 mM MnCl2, 20 mM MgCl2).
The cMET protein was diluted in a cMET storage buffer (50 mM Tris-HCl (pH 7.5), 150 mM NaCl, 0.05% Brij35, 1 mM DTT, 10% glycerol) to a concentration of 263 nM, and then diluted again with 1× kinase reaction buffer to 2 nM. As a substrate cocktail, a MET-specific substrate mixture (5 μM TK peptide, 10 mM ATP) was prepared at a concentration twice the final reaction concentration.
as §1
as §2, with “μl of 2 nM cMET” for “μl of 0.4 nM RON”, “2 nM cMET was dispensed” for “0.4 nM RON was dispensed”, “was dispensed to the high” for “was dispensed into the high”, “μl of 90 mM EDTA” for “μl of 30 mM EDTA”

Each structure is given as a SMILES string.

Sequence of cMET (P08581 25-1390): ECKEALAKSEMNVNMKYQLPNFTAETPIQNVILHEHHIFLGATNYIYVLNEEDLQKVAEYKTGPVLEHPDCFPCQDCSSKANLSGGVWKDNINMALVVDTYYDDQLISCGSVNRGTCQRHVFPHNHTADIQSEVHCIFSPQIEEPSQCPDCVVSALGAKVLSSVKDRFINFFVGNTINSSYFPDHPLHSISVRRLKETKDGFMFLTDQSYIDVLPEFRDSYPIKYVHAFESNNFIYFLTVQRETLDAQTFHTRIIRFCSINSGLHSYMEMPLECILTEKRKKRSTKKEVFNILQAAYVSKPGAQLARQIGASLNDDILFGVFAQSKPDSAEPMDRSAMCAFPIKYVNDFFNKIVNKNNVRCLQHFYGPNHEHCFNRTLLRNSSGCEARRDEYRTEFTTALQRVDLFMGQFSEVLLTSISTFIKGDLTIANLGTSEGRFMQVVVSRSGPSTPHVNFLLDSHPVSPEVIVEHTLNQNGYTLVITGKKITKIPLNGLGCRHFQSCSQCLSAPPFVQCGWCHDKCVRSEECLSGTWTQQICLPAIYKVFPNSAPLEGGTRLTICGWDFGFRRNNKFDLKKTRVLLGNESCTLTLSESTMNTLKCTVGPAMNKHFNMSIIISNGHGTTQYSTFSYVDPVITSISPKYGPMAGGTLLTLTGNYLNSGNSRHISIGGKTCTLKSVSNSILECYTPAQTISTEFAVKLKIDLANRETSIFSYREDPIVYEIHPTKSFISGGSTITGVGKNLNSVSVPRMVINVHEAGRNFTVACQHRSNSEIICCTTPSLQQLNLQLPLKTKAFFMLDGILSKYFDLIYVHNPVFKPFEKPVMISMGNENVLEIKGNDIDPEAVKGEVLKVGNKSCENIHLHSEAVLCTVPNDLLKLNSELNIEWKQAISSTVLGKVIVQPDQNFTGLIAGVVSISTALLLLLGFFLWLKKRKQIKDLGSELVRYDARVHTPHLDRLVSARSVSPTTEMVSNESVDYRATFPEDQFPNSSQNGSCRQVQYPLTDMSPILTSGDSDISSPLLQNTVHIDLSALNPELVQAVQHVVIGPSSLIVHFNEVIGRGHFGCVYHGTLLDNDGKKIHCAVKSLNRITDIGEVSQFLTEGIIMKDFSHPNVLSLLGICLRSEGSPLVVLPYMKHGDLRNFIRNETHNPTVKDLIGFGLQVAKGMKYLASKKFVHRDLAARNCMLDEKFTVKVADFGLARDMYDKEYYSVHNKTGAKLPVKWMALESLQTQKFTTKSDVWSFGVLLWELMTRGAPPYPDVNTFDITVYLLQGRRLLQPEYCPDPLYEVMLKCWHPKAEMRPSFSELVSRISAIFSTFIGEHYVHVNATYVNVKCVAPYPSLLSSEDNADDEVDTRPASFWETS
Sequence of RON (Q04912 25-1400, species assumed): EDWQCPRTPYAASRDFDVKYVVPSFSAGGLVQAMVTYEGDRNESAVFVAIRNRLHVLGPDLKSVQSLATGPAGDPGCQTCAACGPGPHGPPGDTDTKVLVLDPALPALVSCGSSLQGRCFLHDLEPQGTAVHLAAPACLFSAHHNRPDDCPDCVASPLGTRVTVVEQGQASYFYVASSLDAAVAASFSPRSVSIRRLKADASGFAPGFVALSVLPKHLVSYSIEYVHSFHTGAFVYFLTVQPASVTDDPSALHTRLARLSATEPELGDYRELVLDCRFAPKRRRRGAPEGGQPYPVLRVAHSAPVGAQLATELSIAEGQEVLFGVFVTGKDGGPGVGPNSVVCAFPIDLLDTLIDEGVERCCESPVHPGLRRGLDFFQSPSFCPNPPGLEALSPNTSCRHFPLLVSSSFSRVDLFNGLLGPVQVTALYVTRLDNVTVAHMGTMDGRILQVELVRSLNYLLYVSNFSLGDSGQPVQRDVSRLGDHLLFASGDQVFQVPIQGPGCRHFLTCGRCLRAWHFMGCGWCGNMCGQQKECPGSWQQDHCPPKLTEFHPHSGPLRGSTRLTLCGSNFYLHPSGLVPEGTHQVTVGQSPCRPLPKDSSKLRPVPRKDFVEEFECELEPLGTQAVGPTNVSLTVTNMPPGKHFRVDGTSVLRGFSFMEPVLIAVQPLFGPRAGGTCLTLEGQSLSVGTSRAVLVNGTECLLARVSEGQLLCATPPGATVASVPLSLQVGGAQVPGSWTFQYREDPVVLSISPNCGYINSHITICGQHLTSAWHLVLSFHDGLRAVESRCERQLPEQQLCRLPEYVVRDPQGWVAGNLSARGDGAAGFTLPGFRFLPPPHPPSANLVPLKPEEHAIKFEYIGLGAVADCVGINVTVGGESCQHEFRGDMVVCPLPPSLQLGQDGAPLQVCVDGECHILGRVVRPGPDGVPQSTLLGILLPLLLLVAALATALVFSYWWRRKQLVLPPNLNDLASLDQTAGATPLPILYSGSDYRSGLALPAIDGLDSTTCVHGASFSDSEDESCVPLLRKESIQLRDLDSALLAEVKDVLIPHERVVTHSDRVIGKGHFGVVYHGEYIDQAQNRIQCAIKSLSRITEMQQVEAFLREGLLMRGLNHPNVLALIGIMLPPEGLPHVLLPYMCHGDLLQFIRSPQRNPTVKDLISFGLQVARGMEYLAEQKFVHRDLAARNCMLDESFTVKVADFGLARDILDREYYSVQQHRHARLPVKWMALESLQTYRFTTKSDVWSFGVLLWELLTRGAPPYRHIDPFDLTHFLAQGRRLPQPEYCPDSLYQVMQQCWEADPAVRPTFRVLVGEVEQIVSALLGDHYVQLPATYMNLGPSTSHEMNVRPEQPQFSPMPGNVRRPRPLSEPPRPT

In the case of `Nc1nccc(Oc2c(F)cc(NC(=O)c3cnn(-c4ncccc4Cl)c3C(F)(F)F)cc2F)c1C#CCO` [Example 54, N-(4-((2-amino-3-(3-hydroxyprop-1-yn-1-yl)pyridin-4-yl)oxy)-3,5-difluorophenyl)-1-(3-chloropyridin-2-yl)-5-(trifluoromethyl)-1H-pyrazole-4-carboxamide], the IC50 at RON was under 0.05 µM; against cMET it was 0.05 to 0.5 µM.

As for `Nc1nccc(Oc2c(F)cc(NC(=O)c3cnn(-c4ccccc4)c3C(F)(F)F)cc2F)c1CN1CCOCC1` [Example 50, N-(4-((2-amino-3-(morpholinomethyl)pyridin-4-yl)oxy)-3,5-difluorophenyl)-1-phenyl-5-(trifluoromethyl)-1H-pyrazole-4-carboxamide], the IC50 was under 0.05 µM against RON and 0.5 to 5 µM on cMET.

As to `Nc1nccc(Oc2c(F)cc(NC(=O)c3cnn(-c4ccccc4)c3C(F)(F)F)cc2F)c1C#CCO` [Example 51, N-(4-((2-amino-3-(3-hydroxyprop-1-yn-1-yl)pyridin-4-yl)oxy)-3,5-difluorophenyl)-1-phenyl-5-(trifluoromethyl)-1H-pyrazole-4-carboxamide], the IC50 was under 0.05 µM against RON and 0.5 to 5 µM at cMET.

For `N#Cc1c(Oc2c(F)cc(NC(=O)c3cnn(-c4ccccc4)c3C(F)(F)F)cc2F)ccnc1N` [Example 31, N-(4-((2-amino-3-cyanopyridin-4-yl)oxy)-3,5-difluorophenyl)-1-phenyl-5-(trifluoromethyl)-1H-pyrazole-4-carboxamide], the IC50 is under 0.05 µM on RON and 0.5 to 5 µM at cMET.

In the case of `Nc1nccc(Oc2c(F)cc(NC(=O)c3cnn(-c4ncccn4)c3C(F)(F)F)cc2F)c1C#CCO` [Example 55, N-(4-((2-amino-3-(3-hydroxyprop-1-yn-1-yl)pyridin-4-yl)oxy)-3,5-difluorophenyl)-1-(pyrimidin-2-yl)-5-(trifluoromethyl)-1H-pyrazole-4-carboxamide], the IC50 was under 0.05 µM against RON and 0.05 to 0.5 µM against cMET.

Regarding `Nc1nccc(Oc2c(F)cc(NC(=O)c3cnn(-c4ccccn4)c3C(F)(F)F)cc2F)c1C1CC1` [Example 40, N-(4-((2-amino-3-cyclopropylpyridin-4-yl)oxy)-3,5-difluorophenyl)-1-(pyridin-2-yl)-5-(trifluoromethyl)-1H-pyrazole-4-carboxamide], the figures for the IC50 against RON and at cMET were under 0.05 µM and 0.5 to 5 µM, respectively.

For the molecule `Nc1nccc(Oc2cc(F)c(NC(=O)c3cnn(-c4ccccc4)c3C(F)(F)F)c(F)c2)c1Cl` [Example 8, N-(4-((2-amino-3-chloropyridin-4-yl)oxy)-2,6-difluorophenyl)-1-phenyl-5-(trifluoromethyl)-1H-pyrazole-4-carboxamide], the IC50 against RON was 0.5 to 5 µM; against cMET, over 5 µM.

Consider `C#Cc1c(Oc2c(F)cc(NC(=O)c3cnn(-c4ncccc4F)c3C(F)(F)F)cc2F)ccnc1N` [Example 26, N-(4-((2-amino-3-ethynylpyridin-4-yl)oxy)-3,5-difluorophenyl)-1-(3-fluoropyridin-2-yl)-5-(trifluoromethyl)-1H-pyrazole-4-carboxamide], for which the IC50 is under 0.05 µM against RON and 0.5 to 5 µM against cMET.

`Nc1nccc(Oc2c(F)cc(NC(=O)c3cnn(-c4cccnn4)c3C(F)(F)F)cc2F)c1Cl` [Example 3, N-(4-((2-amino-3-chloropyridin-4-yl)oxy)-3,5-difluorophenyl)-1-(pyridazin-3-yl)-5-(trifluoromethyl)-1H-pyrazole-4-carboxamide]: the IC50 at RON was under 0.05 µM; against cMET, 0.5 to 5 µM.

For `CC(C)(O)C#Cc1c(Oc2c(F)cc(NC(=O)c3cnn(-c4ncccc4F)c3C(F)(F)F)cc2F)ccnc1N` [Example 58, N-(4-((2-amino-3-(3-hydroxy-3-methylbut-1-yn-1-yl)pyridin-4-yl)oxy)-3,5-difluorophenyl)-1-(3-fluoropyridin-2-yl)-5-(trifluoromethyl)-1H-pyrazole-4-carboxamide], the IC50 against RON is under 0.05 µM; against cMET, 0.05 to 0.5 µM.

With `Nc1nccc(Oc2c(F)cc(NC(=O)c3cnn(-c4ccccc4)c3C(F)(F)F)cc2F)c1C1CCOCC1` [Example 19, N-(4-((2-amino-3-(tetrahydro-2H-pyran-4-yl)pyridin-4-yl)oxy)-3,5-difluorophenyl)-1-phenyl-5-(trifluoromethyl)-1H-pyrazole-4-carboxamide], the results for the IC50 against RON and against cMET were under 0.05 µM and 0.5 to 5 µM, respectively.

Regarding `C#Cc1c(Oc2c(F)cc(NC(=O)c3cnn(-c4ccccc4)c3C(F)(F)F)cc2F)ccnc1N` [Example 25, N-(4-((2-amino-3-ethynylpyridin-4-yl)oxy)-3,5-difluorophenyl)-1-phenyl-5-(trifluoromethyl)-1H-pyrazole-4-carboxamide], the values for the IC50 against RON and at cMET were under 0.05 µM and 0.5 to 5 µM, respectively.

Regarding `CC(C)c1c(Oc2c(F)cc(NC(=O)c3cnn(-c4ccccc4)c3C(F)(F)F)cc2F)ccnc1N` [Example 43, N-(4-((2-amino-3-isopropylpyridin-4-yl)oxy)-3,5-difluorophenyl)-1-phenyl-5-(trifluoromethyl)-1H-pyrazole-4-carboxamide], the values for the IC50 on RON and against cMET were under 0.05 µM and 0.5 to 5 µM, respectively.

Regarding `COCCCn1ncc(C(=O)Nc2cc(F)c(Oc3ccnc(N)c3Cl)c(F)c2)c1C(F)(F)F` [Example 61, N-[4-[(2-amino-3-chloro-4-pyridyl)oxy]-3,5-difluoro-phenyl]-1-(3-methoxypropyl)-5-(trifluoromethyl)pyrazole-4-carboxamide], the IC50 on RON was in the range of 0.05 to 0.5 µM; at cMET it was 0.5 to 5 µM.

`Nc1nccc(Oc2c(F)cc(NC(=O)c3cnn(-c4ccccn4)c3C(F)(F)F)cc2F)c1C1CCOCC1` [Example 24, N-(4-((2-amino-3-(tetrahydro-2H-pyran-4-yl)pyridin-4-yl)oxy)-3,5-difluorophenyl)-1-(pyridin-2-yl)-5-(trifluoromethyl)-1H-pyrazole-4-carboxamide]: the IC50 is under 0.05 µM at RON and 0.5 to 5 µM at cMET.

On to `N#Cc1c(Oc2c(F)cc(NC(=O)c3cnn(-c4ncccc4F)c3C(F)(F)F)cc2F)ccnc1N` [Example 33, N-(4-((2-amino-3-cyanopyridin-4-yl)oxy)-3,5-difluorophenyl)-1-(3-fluoropyridin-2-yl)-5-(trifluoromethyl)-1H-pyrazole-4-carboxamide], for which the figures for the IC50 against RON and against cMET were under 0.05 µM and 0.05 to 0.5 µM, respectively.

Take `Nc1nccc(Oc2c(F)cc(NC(=O)c3cnn(-c4ncccn4)c3C(F)(F)F)cc2F)c1C1CCOCC1` [Example 22, N-(4-((2-amino-3-(tetrahydro-2H-pyran-4-yl)pyridin-4-yl)oxy)-3,5-difluorophenyl)-1-(pyrimidin-2-yl)-5-(trifluoromethyl)-1H-pyrazole-4-carboxamide]: the IC50 is under 0.05 µM on RON and 0.5 to 5 µM against cMET.

`CC(C)c1c(Oc2c(F)cc(NC(=O)c3cnn(-c4ncccc4Cl)c3C(F)(F)F)cc2F)ccnc1N` [Example 44, N-(4-((2-amino-3-isopropylpyridin-4-yl)oxy)-3,5-difluorophenyl)-1-(3-chloropyridin-2-yl)-5-(trifluoromethyl)-1H-pyrazole-4-carboxamide]: the IC50 at RON was under 0.05 µM; against cMET, 0.5 to 5 µM.

As a reminder, the IC50 is the concentration that gives 50% inhibition. A high value points to weaker potency.
